According to US20080194574A1, “Pyrazine Derivatives As Effective Compounds Against Infectious Diseases” (AXXIMA PHARMACEUTICALS AG, priority 2003, published 2008):

Target: T1, viral kinase pUL-97 (Human cytomegalovirus, UniProt P16788)
T1 construct: The pUL-97 gene was cloned into a baculovirus vector; GST (glutathione S-transferase) (N); made in house; host or cells: Sf9 insect cells, baculovirus
Test: UL97 kinase assay on Immobilon plate
Format: biochemical
Details: inhibition of UL 97 kinase activity; class by IC50 / % inhibition at 10 or 100 μM; read-out: Activity Class [A, B, C]
Experimental: UL97 Kinase-Assay on Immobilon Plate
The effect of pyrazine derivatives of this invention was tested on the activity of the viral kinase pUL-97. This kinase is derived from human cytomegalovirus (HCMV) (M. Marschall et al., Journal of General Virology, 2001, 82, 1439-1450). The pUL-97 gene was cloned into a baculovirus vector in order to produce GST (glutathione S-transferase) fusion protein. Insect cells (Sf9) were infected and GST-UL-97 purified via glutathione affinity columns according to standard procedures.
The pUL-97 kinase reaction was performed as described (M. Marschall et al., Journal of General Virology, 2001, 82, 1439-1450). Briefly, 10 μl Assay buffer (3 μM ATP, 60 μg/ml myelin basic protein (MBP) as substrate), 1.0 μCi γ-[^33P]ATP and 10 μl Basic buffer (20 mM Tris-HCl pH7.5, 0.5 mM MnCl2, 1 mM DTT (Dithiothreitol)) were given to the test tube before adding various concentrations of pyrazine derivatives. The reaction was started by adding 0.2 μl pUL-97 kinase, purified from infected Sf9-insect cells as described above. The total volume was adjusted with Basic buffer to a final volume of 30 μl. The reaction mix was incubated for 1 hr at 30° C. For negative control, 10 μl 0.1M EDTA (Ethylene Diamine tetraacetate) was added to reaction mix before addition of pUL-97 protein kinase. The reaction was stopped by addition of 10 μl 0.1 M EDTA.
Measuring Incorporation of Radioactivity:
The Immobilon plate (Millipore) was rinsed with 50 μl methanol/well. Following addition of 100 μl 0.1 M EDTA, 20 μl of each kinase reaction mix was added to one well of the Immobilon plate. Each well was washed 4× with 250 μl 0.75% phosphoric acid and 1× with 50 μl methanol. After addition of 50 μl scintillation cocktail (Roth, Germany) per well incorporation of radioactivity was measured using a Betareader (Wallac) and enzymatic activity calculated.

T1 sequence (P16788 whole entry): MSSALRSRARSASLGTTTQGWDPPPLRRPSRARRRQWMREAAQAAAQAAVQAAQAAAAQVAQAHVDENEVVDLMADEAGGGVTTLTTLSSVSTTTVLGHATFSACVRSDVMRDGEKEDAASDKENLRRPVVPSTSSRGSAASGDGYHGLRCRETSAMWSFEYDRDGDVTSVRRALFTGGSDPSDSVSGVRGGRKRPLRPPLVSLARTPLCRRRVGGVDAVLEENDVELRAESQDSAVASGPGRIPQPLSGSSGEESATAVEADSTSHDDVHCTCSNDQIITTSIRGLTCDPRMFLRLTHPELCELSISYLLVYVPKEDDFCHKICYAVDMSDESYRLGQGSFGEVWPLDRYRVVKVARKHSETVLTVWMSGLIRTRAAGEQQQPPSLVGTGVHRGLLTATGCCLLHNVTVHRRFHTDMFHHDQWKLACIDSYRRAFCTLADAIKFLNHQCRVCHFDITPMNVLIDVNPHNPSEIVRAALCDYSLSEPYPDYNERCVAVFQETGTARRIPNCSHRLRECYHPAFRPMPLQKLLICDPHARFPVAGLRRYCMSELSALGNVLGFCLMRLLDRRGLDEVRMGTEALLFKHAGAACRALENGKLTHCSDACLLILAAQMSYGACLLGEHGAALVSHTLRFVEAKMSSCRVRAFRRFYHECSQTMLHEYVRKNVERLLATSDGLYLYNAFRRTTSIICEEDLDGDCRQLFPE

SMILES | IC50
COc1ccccc1N1CCN(c2cncc(-c3ccc(C(C)(C)C)cc3)n2)CC1 [compound 88, 6′-(4-tert-Butyl-phenyl)-4-(2-methoxy-phenyl)-3,4,5,6-tetrahydro-2H-[1,2′]bipyrazinyl] | 10 to 100 µM
NC(=O)c1ccc(-c2cncc(N3CCN(c4cccc(Cl)c4)CC3)n2)cc1 [compound 89, 4-[4-(3-Chloro-phenyl)-3,4,5,6-tetrahydro-2H-[1,2′]bipyrazinyl-6′-yl]-benzamide] | 1 to 10 µM
COc1ccccc1N1CCN(c2cncc(-c3ccoc3)n2)CC1 [compound 90, 6′-Furan-3-yl-4-(2-methoxy-phenyl)-3,4,5,6-tetrahydro-2H-[1,2′]bipyrazinyl] | 1 to 10 µM
COc1ccc(Cl)cc1-c1cncc(N2CCN(c3ccccc3OC)CC2)n1 [compound 91, 6′-(5-Chloro-2-methoxy-phenyl)-4-(2-methoxy-phenyl)-3,4,5,6-tetrahydro-2H-[1,2′]bipyrazinyl] | 10 to 100 µM
CCOc1ccc(-c2cncc(N3CCN(c4ccccc4OC)CC3)n2)cc1 [compound 92, 6′-(4-Ethoxy-phenyl)-4-(2-methoxy-phenyl)-3,4,5,6-tetrahydro-2H-[1,2′]bipyrazinyl] | 10 to 100 µM
COc1ccc(-c2cncc(N3CCN(c4cccc(Cl)c4)CC3)n2)cc1OC [compound 100, 4-(3-Chloro-phenyl)-6′-(3,4-dimethoxy-phenyl)-3,4,5,6-tetrahydro-2H-[1,2′]bipyrazinyl] | 1 to 10 µM
CSc1ccc(-c2cncc(N3CCN(c4cccc(Cl)c4)CC3)n2)cc1 [compound 102, 4-(3-Chloro-phenyl)-6′-(4-methylsulfanyl-phenyl)-3,4,5,6-tetrahydro-2H-[1,2′]bipyrazinyl] | 1 to 10 µM

Further lines, results first:

IC50 | SMILES
1 to 10 µM | COc1ccccc1N1CCN(c2cncc(-c3ccc4ccccc4c3)n2)CC1 [compound 86, 4-(2-Methoxy-phenyl)-6′-naphthalen-2-yl-3,4,5,6-tetrahydro-2H-[1,2′]bipyrazinyl]
10 to 100 µM | COc1ccccc1N1CCN(c2cncc(-c3ccccc3C)n2)CC1 [compound 87, 4-(2-Methoxy-phenyl)-6′-o-tolyl-3,4,5,6-tetrahydro-2H-[1,2′]bipyrazinyl]
1 to 10 µM | c1ccc(N2CCN(c3cncc(-c4ccc5ccccc5c4)n3)CC2)cc1 [compound 93, 6′-Naphthalen-2-yl-4-phenyl-3,4,5,6-tetrahydro-2H-[1,2′]bipyrazinyl]
10 to 100 µM | Cc1ccccc1-c1cncc(N2CCN(c3ccccc3)CC2)n1 [compound 94, 4-Phenyl-6′-o-tolyl-3,4,5,6-tetrahydro-2H-[1,2′]bipyrazinyl]
10 to 100 µM | CC(C)(C)c1ccc(-c2cncc(N3CCN(c4ccccc4)CC3)n2)cc1 [compound 95, 6′-(4-tert-Butyl-phenyl)-4-phenyl-3,4,5,6-tetrahydro-2H-[1,2′]bipyrazinyl]
10 to 100 µM | Fc1cc(-c2cncc(N3CCN(c4ccccc4)CC3)n2)ccc1-c1ccccc1 [compound 96, 6′-(2-Fluoro-biphenyl-4-yl)-4-phenyl-3,4,5,6-tetrahydro-2H-[1,2′]bipyrazinyl]
1 to 10 µM | Clc1cccc(N2CCN(c3cncc(-c4ccccc4)n3)CC2)c1 [compound 97, 4-(3-Chloro-phenyl)-6′-phenyl-3,4,5,6-tetrahydro-2H-[1,2′]bipyrazinyl]
1 to 10 µM | COc1cccc(-c2cncc(N3CCN(c4cccc(Cl)c4)CC3)n2)c1 [compound 98, 4-(3-Chloro-phenyl)-6′-(3-methoxy-phenyl)-3,4,5,6-tetrahydro-2H-[1,2′]bipyrazinyl]
1 to 10 µM | Fc1ccc(-c2cncc(N3CCN(c4cccc(Cl)c4)CC3)n2)cc1 [compound 99, 4-(3-Chloro-phenyl)-6′-(4-fluoro-phenyl)-3,4,5,6-tetrahydro-2H-[1,2′]bipyrazinyl]
1 to 10 µM | CC(=O)c1cccc(-c2cncc(N3CCN(c4cccc(Cl)c4)CC3)n2)c1 [compound 101, 1-{3-[4-(3-Chloro-phenyl)-3,4,5,6-tetrahydro-2H-[1,2′]bipyrazinyl-6′-yl]-phenyl}-ethanone]
